Assay results taken from US11319315B2, “Cyclohexyl acid triazole azoles as LPA antagonists” (BRISTOL-MYERS SQUIBB COMPANY, priority 2017, dated 2022).
Where a name gives a salt, the structure may show the parent alone.

Molecular target: T1, human LPA1 (Homo sapiens, UniProt Q92633)
T1 construct: expressed in transfected cells; host or cells: Chinese hamster ovary (CHO) cells
Assay: LPA1 functional antagonist assay (LPA-induced calcium flux in CHO cells overexpressing human LPA1)
Type: cell-based
Details: inhibition of calcium flux induced by 10 nM LPA, CHO cells overexpressing human LPA1; read-out: hLPA1 IC50
How it was run: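 Calcium flux was triggered by 10 nM LPA after 20 min room-temperature compound pre-incubation (final 0.08 nM to 5 μM, 0.5% DMSO) in human LPA1-overexpressing CHO cells carrying calcium dye. Buffer: HBSS with Ca/Mg, 20 mM HEPES, 0.1% fatty-acid-free BSA; IC50s from 4-parameter logistic fits.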

T1 sequence (Q92633 whole entry): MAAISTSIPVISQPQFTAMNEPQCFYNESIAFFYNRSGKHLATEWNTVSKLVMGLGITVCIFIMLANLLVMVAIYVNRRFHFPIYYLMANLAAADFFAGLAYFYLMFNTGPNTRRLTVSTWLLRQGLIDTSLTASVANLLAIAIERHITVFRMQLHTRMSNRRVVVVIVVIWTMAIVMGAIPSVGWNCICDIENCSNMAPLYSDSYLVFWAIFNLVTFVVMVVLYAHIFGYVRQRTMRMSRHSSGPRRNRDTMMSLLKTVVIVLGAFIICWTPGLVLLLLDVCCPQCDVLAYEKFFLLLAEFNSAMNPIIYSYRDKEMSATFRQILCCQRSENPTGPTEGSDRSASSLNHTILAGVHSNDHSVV

Row | Compound | IC50
1 | CCCOCc1nc(NCc2c(-c3ccc(O[C@H]4CCC[C@H](C(=O)O)C4)c(C)n3)nnn2C)no1 [Example 284, (1S,3S)-3-((2-methyl-6-(1-methyl-5-(((5-(propoxymethyl)-1,2,4-oxadi-azol-3-yl)amino)methyl)-1H-1,2,3-triazol-4-yl)pyridin-3-yl)oxy)cyclo-hexane-1-carboxylic acid, TFA salt] | 24 nM
2 | Cc1nc(-c2nnn(C)c2CNc2nc(C3CCC3)cs2)ccc1O[C@H]1CCC[C@H](C(=O)O)C1 [Example 13] | 13 nM
3 | Cc1nc(-c2nnn(C)c2CNc2cc(C3CC3)nn2C)ccc1O[C@H]1CCC[C@H](C(=O)O)C1 [Example 123] | 1290 nM
4 | CCCCc1nc(Nc2c(-c3ccc(O[C@H]4CCC[C@H](C(=O)O)C4)c(C)n3)nnn2C)no1 [Example 275, (1 S,3 S)-3-((6-(5-((5-Butyl-1,2,4-oxadiazol-3-yl)amino)-1-methyl-1H-1,2,3-triazol-4-yl)-2-methylpyridin-3-yl)oxy)cyclohexane-1-carboxylic acid, 2 TFA salt] | 18 nM
5 | Cc1nc(-c2nnn(C)c2Cn2cc(Cc3ccccc3)cn2)ccc1O[C@H]1CCC[C@H](C(=O)O)C1 [Example 80, (1 S,3 S)-3-((6-(5-((4-benzyl-1H-pyrazol-1-yl)methyl)-1-methyl-1H-1,2,3-triazol-4-yl)-2-methylpyridin-3-yl)oxy)cyclohexane-1-carboxylic acid] | 15 nM
6 | Cc1nc(-c2nnn(C)c2Cn2ncc(CC3CC3)n2)ccc1O[C@H]1CCC[C@H](C(=O)O)C1 [Example 264, (1S,3S)-3-((6-(5-((4-(cyclopropyl-methyl)-2H-1,2,3-triazol-2-yl)methyl)-1-methyl-1H-1,2,3-triazol-4-yl)-2-methylpyridin-3-yl)oxy)cyclohexane-1-carboxylic acid] | 14 nM
7 | Cc1nc(-c2nnn(C)c2Cn2nnc(CC3CCC3)n2)ccc1O[C@H]1CCC[C@H](C(=O)O)C1 [Example 295, (1S,3S)-3-{[6-(5-{[5-(cyclobutyl-methyl)-2H-1,2,3,4-tetrazol-2-yl]methyl}-1-methyl-1H-1,2,3-triazol-4-yl)-2-methylpyridin-3-yl]oxy}cyclohexane-1-carboxylic acid] | 102 nM
8 | CCCOCc1nnn(Cc2c(-c3ccc(O[C@H]4CCC[C@H](C(=O)O)C4)c(C)n3)nnn2C)n1 [Example 302, (1S,3S)-3-{[2-methyl-6-(1-methyl-5-{[5-(propoxymethyl)-2H-1,2,3,4-tetrazol-2-yl]methyl}-1H-1,2,3-triazol-4-yl)pyridin-3-yl]oxy}cyclohexane-1-carboxylic acid] | 63 nM
9 | Cc1nc(-c2nnn(C)c2CNc2nc(-c3ccccn3)ns2)ccc1O[C@H]1CCC[C@H](C(=O)O)C1 [Example 101] | 483 nM
10 | Cn1nnc(-c2ccc(O[C@H]3CCC[C@H](C(=O)O)C3)c(C#N)n2)c1Cn1cc(CC2CCCC2)nn1 [Example 93] | 60 nM
11 | CCCCc1nc(NCc2c(-c3ccc(O[C@H]4CCC[C@H](C(=O)O)C4)c(C)n3)nnn2C)no1 [Example 66] | 15 nM
12 | Cc1nc(-c2nnn(C)c2CNc2cc(C(C)C)nn2C)ccc1O[C@H]1CCC[C@H](C(=O)O)C1 [Example 125] | 627 nM

Same assay, conditions: read-out: hLPA1 IC50

Row | Compound | IC50
13 | COc1ccc(-n2nnc(NCc3c(-c4ccc(O[C@H]5CCC[C@H](C(=O)O)C5)c(C)n4)nnn3C)n2)cc1 [Example 383, (1S,3S)-3-((6-(5-(((2-(4-methoxy-phenyl)-2H-tetrazol-5-yl)amino)methyl)-1-methyl-1H-1,2,3-triazol-4-yl)-2-methylpyridin-3-yl)oxy)cyclohexane-1-carboxylic acid] | 513 nM
14 | Cc1nc(-c2nnn(C)c2CNc2noc(COCCCCF)n2)ccc1O[C@H]1CCC[C@H](C(=O)O)C1 [Example 410, (1S,3S)-3-((6-(5-(((5-((4-fluoro-butoxy)methyl)-1,2,4-oxadiazol-3-yl)amino)methyl)-1-methyl-1H-1,2,3-triazol-4-yl)-2-methylpyridin-3-yl)oxy)cyclohexane-1-carboxylic acid] | 43 nM
